{"source": "PubChem BioAssay AID1963838", "about": "(Molecular Pharmacology Branch, DTP, NCI, 2024)", "tested_on": "855422-203-R-J1-PDC complex spheroid viability", "experiment": "Anticancer human tumor 855422-203-R-J1-PDC patient-derived bladder carcinoma cell line growth inhibition [POLQ]", "settings": "for viability, T/C: stronger effect = lower value", "method": "Multicellular complex tumor spheroid response to Polymerase (POL) inhibitors (novobiocin, ART-558, RP6685) in combination with a variety of drugs and investigational agents in selected tumor cell lines\nThe POL inhibitors (novobiocin, ART-558, and RP6685) were evaluated both individually and in combination with standard of care and investigational anticancer small molecules within a complex spheroid model of solid tumors. . Complex spheroids include a stromal component modeled by human endothelial cells (HUVEC) and fibroblasts modeled by human mesenchymal stem cells (MSCs). The concentration ranges selected for each drug and investigational agent were based upon clinically achievable concentrations if the clinical Cmax of the agent was known.\nCompounds. The drugs and investigational agents: novobiocin (NSC847541), ART-558 (NSC835418), RP-6685 (NSC848927), peposertib (NSC802822), ceralasertib (NSC780249), elimusertib (NSC800525), camonsertib (NSC841442), AZD-1390 (NSC803789), olaparib (NSC753686), talazoparib (NSC767125), rucaparib (NSC756644), sotorasib (NSC818433), MRTX-1133 (NSC836407), SN-38 (NSC673596), topotecan (NSC609699), epotoside (NSC141540), doxorubicin (NSC123127), gemcitabine (NSC613327), 5-fluorouracil (NSC19893), paclitaxel (NSC125973), vemurafenib (NSC761431), MSA-2 (NSC828583), SN-011 (NSC837082), adavosertib (NSC754352), prexasertib (NSC758257), carboplatin (NSC241240) and oxaliplatin (NSC266046), were obtained from the National Cancer Institute (NCI) Developmental Therapeutics Program Chemical Repository (21). The FDA-approved anticancer drug set is available from the Developmental Therapeutics Program at https://dtp.cancer.gov/organization/dscb/obtaining/. […] The stock solutions were prepared in dimethyl sulfoxide (DMSO, Sigma-Aldrich, St. Louis, MO, cat. D2650), except for the platinum compounds which were prepared in saline (Quality Biological, Gaithersburg, MD, cat. 114-055-101), at 800-fold the tested concentration and stored at -70 degrees C prior to their use. All drugs and investigational agents were tested over a range starting from a high concentration at or near the clinical Cmax and decreasing in half-log increments. If the clinical Cmax for an agent had not been determined, the highest concentration tested was 10 microM, except for SN-38, which was tested at a high concentration of 1 microM.\nCell Culture. All cells were maintained in an incubator at 37 degrees C and 5% CO2 with 95% humidity. The PDC lines were cultured according to standard operating procedures established by the NCI PDMR (https://pdmr.cancer.gov). Table 3 of the manuscript, lists the cell lines along with the number of the three cell types plated to form the mct-spheroids and media for tumor cell growth. After thawing, all PDC lines, except 997537-175-T-J1-PDC and 415267-285-R-J2-PDC, were cultured in Matrigel-coated flasks prepared with a working solution of 1X Ham's F-12 nutrient mix, without supplementation (Thermo Fisher Scientific, cat. 11765054), 100 U/mL penicillin-streptomycin (Thermo Fisher Scientific, cat. 15140122), and 2.5% Matrigel (Corning Inc., Corning, NY, cat. 354248) for the first three passages. The two PDC lines 997537-175-T-J1-PDC and 415267-285-R-J2-PDC were cultured on uncoated flasks. The 857933-349-R-J2-PDC line was cultured in 6C/Colon 1B media containing advanced DMEM/F-12 (Thermo Fisher Scientific, cat. 12634028), 10 mM HEPES (Thermo Fisher Scientific, cat. 15630080), 1X GlutaMAX supplement (Thermo Fisher Scientific, cat. 35050061), 0.1 mg/mL primocin (InvivoGen, San Diego, CA, cat. ant-pm-2), 10% defined fetal bovine serum, heat inactivated (HyClone Laboratories Inc., Logan, UT, cat. SH30070.03HI), 50% L-WRN conditioned media (ATCC, cat. CRL-3276), 1.25 mM N-Acetyl-L-cysteine (Sigma-Aldrich, cat. A9165), 10 mM nicotinamide (Sigma-Aldrich, cat. N0636), 1X B-27 supplement (Thermo Fisher Scientific, cat. 17504044), 1X N-2 supplement (Thermo Fisher Scientific, cat. […]", "note": "“And” between values parts separate entries of the source, which are not always exact repeats. Equal entries are not always repeated.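 Also: spheroids exposed to compounds for seven days before readout.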", "data": [{"smiles": "CC(=O)O[C@H]1C(=O)[C@@]2(C)[C@H]([C@H](OC(=O)c3ccccc3)[C@]3(O)C[C@H](OC(=O)[C@H](O)[C@@H](NC(=O)c4ccccc4)c4ccccc4)C(C)=C1C3(C)C)[C@]1(OC(C)=O)CO[C@@H]1C[C@@H]2O", "note": "+ Cc1cccc(N(C)C(=O)C2C(O)CCN2c2nc(C)cc(C(F)(F)F)c2C#N)c1", "values": [{"measurement": "IC50", "setting": "curve of first compound, second compound 0.0316 µM", "value": "< 9.49", "unit": "nM"}, {"measurement": "IC50", "setting": "curve of first compound, second compound 0.1 µM", "value": "< 9.49", "unit": "nM"}, {"measurement": "IC50", "setting": "curve of first compound, second compound 0.316 µM", "value": "< 9.49", "unit": "nM"}, {"measurement": "IC50", "setting": "curve of first compound, second compound 1 µM", "value": "< 9.49", "unit": "nM"}, {"measurement": "IC50", "setting": "curve of first compound, second compound 3.16 µM", "value": "< 9.49", "unit": "nM"}, {"measurement": "IC50", "setting": "curve of first compound, second compound 10 µM", "value": "< 9.49", "unit": "nM"}, {"measurement": "viability, T/C", "setting": "second compound 0.0316 µM, first compound 0.00949 µM", "value": 13.6, "unit": "%"}, {"measurement": "viability, T/C", "setting": "second compound 0.0316 µM, first compound 0.03 µM", "value": 9.26, "unit": "%"}, {"measurement": "viability, T/C", "setting": "second compound 0.0316 µM, first compound 0.0949 µM", "value": 11.7, "unit": "%"}, {"measurement": "viability, T/C", "setting": "second compound 0.0316 µM, first compound 0.3 µM", "value": 9.48, "unit": "%"}, {"measurement": "viability, T/C", "setting": "second compound 0.0316 µM, first compound 0.949 µM", "value": 11.1, "unit": "%"}, {"measurement": "viability, T/C", "setting": "second compound 0.0316 µM, first compound 3 µM", "value": 12.6, "unit": "%"}, {"measurement": "viability, T/C", "setting": "second compound 0.1 µM, first compound 0.00949 µM", "value": 16.4, "unit": "%"}, {"measurement": "viability, T/C", "setting": "second compound 0.1 µM, first compound 0.03 µM", "value": 10.2, "unit": "%"}, {"measurement": "viability, T/C", "setting": "second compound 0.1 µM, first compound 0.0949 µM", "value": 9.03, "unit": "%"}, {"measurement": "viability, T/C", "setting": "second compound 0.1 µM, first compound 0.3 µM", "value": 7.34, "unit": "%"}, {"measurement": "viability, T/C", "setting": "second compound 0.1 µM, first compound 0.949 µM", "value": 9.39, "unit": "%"}, {"measurement": "viability, T/C", "setting": "second compound 0.1 µM, first compound 3 µM", "value": 8.97, "unit": "%"}, {"measurement": "viability, T/C", "setting": "second compound 0.316 µM, first compound 0.00949 µM", "value": 11.8, "unit": "%"}, {"measurement": "viability, T/C", "setting": "second compound 0.316 µM, first compound 0.03 µM", "value": 10.8, "unit": "%"}, {"measurement": "viability, T/C", "setting": "second compound 0.316 µM, first compound 0.0949 µM", "value": 8.92, "unit": "%"}, {"measurement": "viability, T/C", "setting": "second compound 0.316 µM, first compound 0.3 µM", "value": 9.41, "unit": "%"}, {"measurement": "viability, T/C", "setting": "second compound 0.316 µM, first compound 0.949 µM", "value": 10.9, "unit": "%"}, {"measurement": "viability, T/C", "setting": "second compound 0.316 µM, first compound 3 µM", "value": 9.92, "unit": "%"}, {"measurement": "viability, T/C", "setting": "second compound 1 µM, first compound 0.00949 µM", "value": 9.84, "unit": "%"}, {"measurement": "viability, T/C", "setting": "second compound 1 µM, first compound 0.03 µM", "value": 12, "unit": "%"}, {"measurement": "viability, T/C", "setting": "second compound 1 µM, first compound 0.0949 µM", "value": 9.05, "unit": "%"}, {"measurement": "viability, T/C", "setting": "second compound 1 µM, first compound 0.3 µM", "value": 9.65, "unit": "%"}, {"measurement": "viability, T/C", "setting": "second compound 1 µM, first compound 0.949 µM", "value": 10.3, "unit": "%"}, {"measurement": "viability, T/C", "setting": "second compound 1 µM, first compound 3 µM", "value": 10.7, "unit": "%"}, {"measurement": "viability, T/C", "setting": "second compound 3.16 µM, first compound 0.00949 µM", "value": 11.4, "unit": "%"}, {"measurement": "viability, T/C", "setting": "second compound 3.16 µM, first compound 0.03 µM", "value": 11.7, "unit": "%"}, {"measurement": "viability, T/C", "setting": "second compound 3.16 µM, first compound 0.0949 µM", "value": 10.1, "unit": "%"}, {"measurement": "viability, T/C", "setting": "second compound 3.16 µM, first compound 0.3 µM", "value": 10.2, "unit": "%"}, {"measurement": "viability, T/C", "setting": "second compound 3.16 µM, first compound 0.949 µM", "value": 11.5, "unit": "%"}, {"measurement": "viability, T/C", "setting": "second compound 3.16 µM, first compound 3 µM", "value": 10.8, "unit": "%"}, {"measurement": "viability, T/C", "setting": "second compound 10 µM, first compound 0.00949 µM", "value": 13.1, "unit": "%"}, {"measurement": "viability, T/C", "setting": "second compound 10 µM, first compound 0.03 µM", "value": 11.8, "unit": "%"}, {"measurement": "viability, T/C", "setting": "second compound 10 µM, first compound 0.0949 µM", "value": 12.8, "unit": "%"}, {"measurement": "viability, T/C", "setting": "second compound 10 µM, first compound 0.3 µM", "value": 10.9, "unit": "%"}, {"measurement": "viability, T/C", "setting": "second compound 10 µM, first compound 0.949 µM", "value": 12, "unit": "%"}, {"measurement": "viability, T/C", "setting": "second compound 10 µM, first compound 3 µM", "value": 11.9, "unit": "%"}]}, {"smiles": "CC(=O)O[C@H]1C(=O)[C@@]2(C)[C@H]([C@H](OC(=O)c3ccccc3)[C@]3(O)C[C@H](OC(=O)[C@H](O)[C@@H](NC(=O)c4ccccc4)c4ccccc4)C(C)=C1C3(C)C)[C@]1(OC(C)=O)CO[C@@H]1C[C@@H]2O", "values": [{"measurement": "viability, T/C", "setting": "compound 0.00949 µM", "value": "13.3% and 11.4% and 6.22%"}, {"measurement": "viability, T/C", "setting": "compound 0.03 µM", "value": "9.21% and 8.32% and 5.81%"}, {"measurement": "viability, T/C", "setting": "compound 0.0949 µM", "value": "10.3% and 7.91% and 5.5%"}, {"measurement": "viability, T/C", "setting": "compound 0.3 µM", "value": "7.66% and 7.33% and 5.13%"}, {"measurement": "viability, T/C", "setting": "compound 0.949 µM", "value": "6.14% and 7.78% and 6.34%"}, {"measurement": "viability, T/C", "setting": "compound 3 µM", "value": "7.69% and 7.6% and 7.01%"}, {"measurement": "IC50", "setting": "curve of compound", "value": "< 9.49", "unit": "nM"}]}]}
